Laboratory results as given in patent US6348571B1, “Corticotropin release inhibiting factor and methods of using same” (Northwestern University, priority 1994, dated 2002).

Assays:
GH3 cells = assay: T3 treatment of GH3 cells transfected with human prepro-TRH: TRH mRNA expression; assay type: cell-based, rat; details: 1-100 nM
[1] = system: SCW-induced inflammatory response; assay: Thyroid status and SCW-induced inflammatory response in female rats; assay type: in vivo, rat
Excerpt: RA is an autoimmune disease characterized by chronic degradation of the joints resulting from inflammation of synovial membranes. SCW-induced inflammation in the autoimmune prone female Lewis rat is an accepted animal model for the study of RA. […] It is likely that increased thyroid activity decreases the susceptibility to inflammatory immune disease by increasing glucocorticoid levels. The discovery of CRIF encoded within the same precursor as TRH establishes a direct link between the HPA and thyroid axes. Thyroid hormones may play a fundamental role in regulating the HPA axis by modulation of levels of prepro-TRH mRNA.
To determine the role played by thyroid hormones and concomitant changes in the HPA axis in the development of SCW-induced inflammatory response, expression of genes which reflect the status of thyroid function (TRH), pituitary-adrenal activity (POMC) and inflammation (IL-1β and MIP-1α, a macrophage specific inflammatory protein) was measured. Adult female rats were fed a regular diet (control), or a regular diet plus 0.012% T4 (hyperthyroid) or 0.05% 6-propyl-thiouracil (PTU) supplied in the in drinking water (hypothyroid), for seven weeks. A preparation of SCW (20 μg/g of body weight) was administered intraperitoneally to the rats three days before decapitation. Anterior pituitary POMC, hypothalamic TRH and peritoneal macrophage IL-1β and MIP-1α mRNA levels were assessed by Northern blot hybridization analysis using specific cDNA probes. The levels of mRNA were normalized to the housekeeping gene, GAPD, and were quantified by image analysis densitometry. Plasma levels of TSH and CORT were determined by RIA.

[2] = system: SCW-induced inflammatory response; details: Rittenhouse et al., 1995; cited from earlier work
AtT-20 cells = assay: Transfection of AtT-20 cells with prepro-TRH expression plasmids: ACTH secretion (RIA); assay type: cell-based, mouse; details: concluded from deletion studies and known prepro-TRH processing
Excerpt: The expression vector pCMV-TRH comprises cDNA encoding rat TRH under the control of the human cytomegalovirus (HCMV) immediate early promoter (Lee et al., 1988, J. Biol. Chem. 263:16604-16609). To generate this vector, a 1,322 bp fragment comprising sequences encoding TRH was excised from the plasmid pSP64, by digestion with HindIII and EcoRI. This fragment was then inserted into pcDNA-3 (Invitrogen, San Diego, Calif.) to generate pCMV-TRH comprising the HCMV immediate early promoter, the bovine growth hormone polyadenylation signal and cDNA encoding TRH inserted therebetween. This plasmid also contains sequences encoding resistance to neomycin and can therefore be used to select stably transfected cells.
Referring to FIG. 1, two deletions were made in the expression vector pCMV-TRH. The first deletion, ΔBstEII, contains a deletion between nucleotides 506 and 787 in TRH cDNA. […] To generate ΔBstEII, pCMV-TRH was digested with BstEII, and a 6.4 kb fragment was isolated therefrom. The 5′ sticky ends were filled in with Klenow to create blunt ends, and the 6.4 kb fragment was then religated to form ΔBstEII. This religation results in restoration of the original wild type reading frame. […]
ACTH-like immunoreactivity was measured using an antiserum which reacts with amino acids 1-24 and 1-39 on ACTH on an equimolar basis. […]

Compound: N[C@@H](Cc1cc(I)c(Oc2ccc(O)c(I)c2)c(I)c1)C(=O)O [T3]
- expression of TRH mRNA (GH3 cells): suppressing expression of TRH mRNA

Compound: N[C@@H](Cc1cc(I)c(Oc2cc(I)c(O)c(I)c2)c(I)c1)C(=O)O [T4, thyroxin]
- increase in macrophage MIP-1α mRNA levels on SCW administration ([1]; SCW 20 μg/g ip, SCW-administered control rats 17-fold): 1.7 fold
- plasma CORT levels ([1]; altered thyroid status, FIG. 12E): significant increase
- decrease of hypothalamic TRH mRNA levels ([1]; hyperthyroid group, 0.012% in diet, seven weeks): 20%
- inflammatory effects of SCW-induced autoimmune responses [2]: decreases the adverse inflammatory effects

Compound: prepro-TRH 172-199: includes the uncleaved fourth TRH portion covalently bound to the amino terminal portion of peptide 178-199 (QHPGRRFIDPELQRSWEEKEGEGVLMPE; UniProt P01150 172-199, looked up, fragment)
- CRIF activity (AtT-20 cells): has CRIF activity
